From US20200239530A1, “COMPOUNDS AND METHODS OF MODULATING PROTEIN DEGRADATION” (Vividion Therapeutics, Inc., priority 2017, published 2020)
Read-outs that look alike come from different tables or passages of the source.

Tests used:
Assay type in all cases: binding
[1] = biological target: T1, cysteine residue illustrated in Table 1A or Table 2A (Homo sapiens, UniProt Q8N9I9); experiment: Competitive cysteine profiling of cell lysate with desthiobiotin iodoacetamide probe (96-well sample prep); details: UniProt Q8N9I9; 100 uM
T1 construct: Cells were resuspended in cold PBS on ice and sonicated with a probe sonicator to achieve lysis; endogenous in cells
Method: (§1) In some embodiments, the solution sample (e.g., cell sample, cell lysate sample, or comprising isolated proteins) is incubated with a compound of Formula (I) for analysis of protein-probe interactions. In some instances, the solution sample (e.g., cell sample, cell lysate sample, or comprising isolated proteins) is further incubated in the presence of an additional compound probe prior to addition of the compound of Formula (I). […] In such instances, the solution sample is incubated with a probe and a ligand for competitive protein profiling analysis.
(§2) The following 96-well sample prep protocol was used for sample preparation.
(§3) Cells were resuspended in cold PBS on ice and sonicated with a probe sonicator to achieve lysis. 200 μL of lysate containing 5 mg/ml proteome was treated with 2 μL of 100× compound stock in a 2-mL deep-well plate. The treated lysate was subsequently incubate at 25° C. for 1 hr with shaking at 600 rpm. The treated lysate was further incubated with 2 μL of 10 mM desthiobiotin iodoacetamide probe at 25° C. for 1 hr with shaking at 600 rpm. Next, the lysate was further treat with 20 μL of solution of PBS containing 11 mM MgSO4 and 2.5% Turbonuclease stock and incubated at 25° C. for 20 minutes with shaking at 600 rpm. 1.7 mL ice-cold acetone was added to each well and incubated at −20° C. for 2 hr, followed by max speed (4200 rpm) spin for 45 min. Acetone was then decanted and the plates were blotted to remove acetone. The plates were then dried in open air for 20 minutes. After drying, the plates were then covered with foil seal and stored at −80° C. overnight.
(§4) The next day, samples were re-suspended in 90 μL of solution of 9M urea, 50 mM ammonium bicarbonate and 10 mM DTT by incubating at 65C for 20 min with shaking at 1500 rpm. Next, samples were cooled to 37° C. and then 10 μL of 500 mM iodoacetamide solution (92.48 mg/ml) was added. The samples were then incubated at 37° C. for 30 min with shaking at 600 rpm.
(§5) ZEBA desalting plates were equilibrated 4 times using 250 μL of 2M urea, 50 mM ammonium bicarbonate solution followed by centrifugation at 1500 rpm for 2 minutes. After equilibration was complete, samples were applied to ZEBA desalting plate and spin at 1500 rpm for 2 min on top of 1 mL 96-well deep-well collection plate to buffer exchange samples. 4 μL of solution containing 25 mM CaCl2 and 0.25 mg/mL trypsin was added to the plate and the plate was then incubated at 37° C. for 2 hrs with shaking at 600 rpm. 300 μL of solution containing 5% high-capacity streptavidin agarose slurry in 25 mM Tris-HCl pH 7.5, 150 mM NaCl, and 0.1% NP-40 then added. The plate was incubated at 25° C. for 2 hrs with shaking at 600 rpm. Samples were transferred to 25 μm filter plate and spin at 1000 rpm for 2 min. Samples were then washed 3 times with 0.75 mL of wash buffer (25 mM Tris-HCl pH 7.5, 150 mM NaCl, and 0.1% NP-40) followed by washing 3 times with 0.75 mL PBS, and then 4 times with 0.75 mL water. After the washing step, samples were eluted into polypropylene 96-well plate by addition of 250 µL of 50% MeCN/water, 0.1% formic acid and allowed to gravity drip for 10 min, followed by centrifugation at 1000 rpm for 2 min. Speedvac was used to dry the plates at about 45° C. for […]. Then the plates were covered with foil seal and stored at −20° C.
(§6) Samples were resuspended by addition of 20 μl of 12.5% ACN, 0.1% formic acid solution, covered with foil seal, and incubated at 42° C. for 10 minutes with shaking at 600 rpm. Then add 30 μL of 0.1% formic acid solution was added and the plate was covered and incubated at 42° C. for 10 minutes with shaking at 600 rpm. Seal plate was then sealed with a 96-well silicon mat for analysis.

[2] = biological target: T2, cysteine residue illustrated in Table 1A or Table 2A (Homo sapiens, UniProt Q86UW9); experiment: as above; details: UniProt Q86UW9; 100 uM
T2 construct: Cells were resuspended in cold PBS on ice and sonicated with a probe sonicator to achieve lysis; endogenous in cells
Method: as §1, §2, §3, §4, §5, §6

UniProt Q6ZMU5 = biological target: T3, UniProt Q6ZMU5 (Homo sapiens, UniProt Q6ZMU5); experiment: Cysteine liganding, probe competition
T3 construct: 200 μL of lysate containing 5 mg/ml proteome was treated with 2 μL of 100× compound stock; endogenous in cells
T3 sequence (Q6ZMU5 1-477): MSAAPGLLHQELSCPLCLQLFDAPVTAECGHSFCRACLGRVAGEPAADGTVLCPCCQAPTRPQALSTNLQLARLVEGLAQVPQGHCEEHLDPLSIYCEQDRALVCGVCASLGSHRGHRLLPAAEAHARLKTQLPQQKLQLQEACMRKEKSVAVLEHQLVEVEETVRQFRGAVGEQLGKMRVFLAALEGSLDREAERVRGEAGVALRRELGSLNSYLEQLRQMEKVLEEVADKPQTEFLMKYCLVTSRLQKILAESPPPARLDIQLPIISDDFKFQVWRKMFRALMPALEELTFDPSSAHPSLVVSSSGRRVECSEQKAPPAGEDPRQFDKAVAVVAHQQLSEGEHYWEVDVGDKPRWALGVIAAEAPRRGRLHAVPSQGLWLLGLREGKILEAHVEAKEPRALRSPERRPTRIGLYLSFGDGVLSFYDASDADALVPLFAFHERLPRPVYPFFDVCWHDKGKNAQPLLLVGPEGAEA
Description: as §2

UniProt Q9H0F5 = biological target: T4, UniProt Q9H0F5 (Homo sapiens, UniProt Q9H0F5); experiment: Cysteine liganding, probe competition; details: for percent_inhibition / inhibition at 500 µM: 500 uM
T4 construct: 200 μL of lysate containing 5 mg/ml proteome was treated with 2 μL of 100× compound stock; endogenous in cells
Description: as §2

[3] = biological target: T5, cysteine residue illustrated in Table 1A or Table 2A (Homo sapiens, UniProt Q8NHY2); experiment: Competitive cysteine profiling of cell lysate with desthiobiotin iodoacetamide probe (96-well sample prep); details: UniProt Q8NHY2; 100 uM
T5 construct: Cells were resuspended in cold PBS on ice and sonicated with a probe sonicator to achieve lysis; endogenous in cells
Method: as §1, §2, §3, §4, §5, §6

[4] = biological target: T6, cysteine residue illustrated in Table 1A or Table 2A (Homo sapiens, UniProt Q8TEB1); experiment: as above; details: UniProt Q8TEB1; 100 uM
T6 construct: Cells were resuspended in cold PBS on ice and sonicated with a probe sonicator to achieve lysis; endogenous in cells
Method: as §1, §2, §3, §4, §5, §6

[5] = biological target: T7, cysteine residue illustrated in Table 1A or Table 2A (Homo sapiens, UniProt Q8N3P4); experiment: as above; details: UniProt Q8N3P4
T7 construct: Cells were resuspended in cold PBS on ice and sonicated with a probe sonicator to achieve lysis; endogenous in cells
Method: as §1, §2, §3, §4, §5, §6

[6] = biological target: T8, cysteine residue illustrated in Table 1A or Table 2A (Homo sapiens, UniProt Q9P000); experiment: as above; details: UniProt Q9P000; 100 uM
T8 construct: Cells were resuspended in cold PBS on ice and sonicated with a probe sonicator to achieve lysis; endogenous in cells
Method: as §1, §2, §3, §4, §5, §6

UniProt O96028 = biological target: T9, UniProt O96028 (Homo sapiens, UniProt O96028); experiment: Cysteine liganding, probe competition; details: 500 uM
T9 construct: Cells were resuspended in cold PBS on ice and sonicated with a probe sonicator to achieve lysis; endogenous in cells
Description: as §2

| Structure (SMILES) | KB02_100 uM_percent_inhibition [1] [%] | KB02_100 uM_percent_inhibition [2] [%] | inhibition at 100 µM (UniProt Q6ZMU5; read-out: KB02_100 uM_percent_inhibition) [%] | inhibition at 100 µM (UniProt Q9H0F5; 100 uM, read-out: percent_inhibition) [%] | percent_inhibition (UniProt Q9H0F5) [%] | inhibition at 500 µM (UniProt Q9H0F5; read-out: percent_inhibition) [%] | KB05_100 uM_percent_inhibition [3] [%] | KB05_100 uM_percent_inhibition [4] [%] | KB05_100 uM_percent_inhibition ([5]; KB05 100 uM) [%] | KB05_100 uM_percent_inhibition [6] [%] | KB05_100 uM_percent_inhibition (UniProt Q6ZMU5; 100 uM) [%] | inhibition at 100 µM (UniProt Q6ZMU5; read-out: KB05_100 uM_percent_inhibition) [%] | KB05_500 uM_percent_inhibition (UniProt O96028) [%] | KB03_100 uM_percent_inhibition [1] [%] | KB03_100 uM_percent_inhibition [3] [%] | KB03_100 uM_percent_inhibition [4] [%] | KB03_100 uM_percent_inhibition [2] [%] | KB03_100 uM_percent_inhibition ([5]; KB03 100 uM) [%] | KB03_100 uM_percent_inhibition [6] [%] | KB03_500 uM_percent_inhibition (UniProt O96028) [%] |
| --- | --- | --- | --- | --- | --- | --- | --- | --- | --- | --- | --- | --- | --- | --- | --- | --- | --- | --- | --- | --- |
| COc1ccc2c(c1)CCCN2C(=O)CCl [KB02] | 8 | 28 | 36 | 44 | 42 | 24 |  |  |  |  |  |  |  |  |  |  |  |  |  |  |
| C=CC(=O)N(c1ccccc1)c1ccc(Br)cc1 [KB05] |  |  |  |  | 10 | 16 | 43 | 38 | 55 | 19 | 8 | 6 | 79 |  |  |  |  |  |  |  |
| O=C(CCl)Nc1cc(C(F)(F)F)cc(C(F)(F)F)c1 [KBO3] |  |  |  |  |  |  |  |  |  |  |  |  |  | 10 | 27 | 43 | 8 | 44 | 30 | 78 |
